In ChEMBL document CHEMBL5291721, “A preclinical secondary pharmacology resource illuminates target-adverse drug reaction associations of marketed drugs” (Nat Commun, 2023):
Where “and” joins values, the source holds several entries; their conditions need not be identical. Equal values may be shown once.

Assays:
Endothelin-1 receptor = molecular target: T1, Endothelin-1 receptor (Homo sapiens, UniProt P25101)
T1 sequence (P25101 whole entry): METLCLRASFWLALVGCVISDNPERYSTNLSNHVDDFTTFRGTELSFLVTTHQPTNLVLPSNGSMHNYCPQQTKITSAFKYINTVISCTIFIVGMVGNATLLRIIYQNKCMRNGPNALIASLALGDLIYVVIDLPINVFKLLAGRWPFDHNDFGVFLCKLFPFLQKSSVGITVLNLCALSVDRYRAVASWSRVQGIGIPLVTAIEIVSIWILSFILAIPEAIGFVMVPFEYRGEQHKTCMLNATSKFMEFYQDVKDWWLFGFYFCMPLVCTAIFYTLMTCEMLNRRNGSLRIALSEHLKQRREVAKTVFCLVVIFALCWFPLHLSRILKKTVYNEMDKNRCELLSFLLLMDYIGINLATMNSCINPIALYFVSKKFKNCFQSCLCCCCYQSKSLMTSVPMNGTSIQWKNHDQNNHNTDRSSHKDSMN

Adenosine receptor A3 = molecular target: T2, Adenosine receptor A3 (Homo sapiens, UniProt P0DMS8)
T2 sequence (P0DMS8 whole entry): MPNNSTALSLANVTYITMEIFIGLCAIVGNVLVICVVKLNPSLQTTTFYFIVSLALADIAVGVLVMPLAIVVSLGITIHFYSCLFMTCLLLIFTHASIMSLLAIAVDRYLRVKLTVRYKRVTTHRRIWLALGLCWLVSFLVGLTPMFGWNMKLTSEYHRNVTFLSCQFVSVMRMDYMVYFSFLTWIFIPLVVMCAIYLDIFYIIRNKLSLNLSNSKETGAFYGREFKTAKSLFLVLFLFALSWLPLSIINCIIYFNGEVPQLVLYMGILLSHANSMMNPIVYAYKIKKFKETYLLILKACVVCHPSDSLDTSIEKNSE

[1] = molecular target: T3, Sodium-dependent dopamine transporter (Homo sapiens, UniProt Q01959)
[2] = molecular target: T4, Muscarinic acetylcholine receptor M2 (Homo sapiens, UniProt P08172); assay type: functional, cell-based
T4 sequence (P08172 whole entry): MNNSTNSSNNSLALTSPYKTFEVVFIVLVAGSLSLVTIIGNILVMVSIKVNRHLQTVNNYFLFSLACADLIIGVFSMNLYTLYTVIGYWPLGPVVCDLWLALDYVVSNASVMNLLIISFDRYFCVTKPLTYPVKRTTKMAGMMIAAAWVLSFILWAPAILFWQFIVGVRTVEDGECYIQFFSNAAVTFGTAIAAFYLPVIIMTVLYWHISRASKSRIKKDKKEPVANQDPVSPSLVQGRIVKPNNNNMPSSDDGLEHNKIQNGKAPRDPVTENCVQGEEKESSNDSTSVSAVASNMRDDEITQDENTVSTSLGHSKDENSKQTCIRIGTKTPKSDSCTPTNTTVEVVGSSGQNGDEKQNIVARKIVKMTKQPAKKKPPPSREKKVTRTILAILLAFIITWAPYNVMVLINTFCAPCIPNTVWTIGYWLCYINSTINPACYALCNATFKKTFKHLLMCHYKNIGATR

[3] = molecular target: Neuronal acetylcholine receptor subunit alpha-4 (Homo sapiens, UniProt P43681)
[4] = molecular target: Beta-2 adrenergic receptor (Homo sapiens, UniProt P07550); assay type: functional, cell-based
Vasopressin V2 receptor = Vasopressin V2 receptor (Homo sapiens, UniProt P30518)
Thromboxane A2 receptor = molecular target: T5, Thromboxane A2 receptor (Homo sapiens, UniProt P21731); assay type: functional, cell-based
T5 sequence (P21731 whole entry): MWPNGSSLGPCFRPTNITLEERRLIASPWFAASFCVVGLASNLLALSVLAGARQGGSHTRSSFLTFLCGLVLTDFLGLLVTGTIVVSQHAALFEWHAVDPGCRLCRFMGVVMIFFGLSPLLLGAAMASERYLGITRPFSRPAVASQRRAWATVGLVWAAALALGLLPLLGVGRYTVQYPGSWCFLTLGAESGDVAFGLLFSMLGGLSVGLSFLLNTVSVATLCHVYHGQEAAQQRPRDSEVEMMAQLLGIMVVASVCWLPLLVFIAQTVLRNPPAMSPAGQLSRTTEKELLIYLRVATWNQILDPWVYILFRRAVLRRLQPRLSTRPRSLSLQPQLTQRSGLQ

[5] = molecular target: T3, Sodium-dependent dopamine transporter; remark: listed apart in the source
[6] = molecular target: T6, 5-hydroxytryptamine receptor 1A (Homo sapiens, UniProt P08908)
T6 sequence (P08908 whole entry): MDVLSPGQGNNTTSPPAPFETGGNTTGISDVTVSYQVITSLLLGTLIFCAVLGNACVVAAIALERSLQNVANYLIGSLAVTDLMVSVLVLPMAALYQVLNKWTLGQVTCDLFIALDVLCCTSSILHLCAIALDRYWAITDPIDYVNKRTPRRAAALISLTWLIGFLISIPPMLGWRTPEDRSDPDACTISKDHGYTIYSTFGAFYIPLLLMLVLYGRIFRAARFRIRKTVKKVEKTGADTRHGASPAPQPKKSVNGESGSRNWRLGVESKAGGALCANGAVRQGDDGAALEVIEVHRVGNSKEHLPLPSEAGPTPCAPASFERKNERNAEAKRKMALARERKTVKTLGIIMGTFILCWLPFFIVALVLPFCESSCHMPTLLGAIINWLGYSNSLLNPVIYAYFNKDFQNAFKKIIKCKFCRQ

[7] = molecular target: T7, Alpha-2A adrenergic receptor (Homo sapiens, UniProt P08913)
T7 sequence (P08913 whole entry): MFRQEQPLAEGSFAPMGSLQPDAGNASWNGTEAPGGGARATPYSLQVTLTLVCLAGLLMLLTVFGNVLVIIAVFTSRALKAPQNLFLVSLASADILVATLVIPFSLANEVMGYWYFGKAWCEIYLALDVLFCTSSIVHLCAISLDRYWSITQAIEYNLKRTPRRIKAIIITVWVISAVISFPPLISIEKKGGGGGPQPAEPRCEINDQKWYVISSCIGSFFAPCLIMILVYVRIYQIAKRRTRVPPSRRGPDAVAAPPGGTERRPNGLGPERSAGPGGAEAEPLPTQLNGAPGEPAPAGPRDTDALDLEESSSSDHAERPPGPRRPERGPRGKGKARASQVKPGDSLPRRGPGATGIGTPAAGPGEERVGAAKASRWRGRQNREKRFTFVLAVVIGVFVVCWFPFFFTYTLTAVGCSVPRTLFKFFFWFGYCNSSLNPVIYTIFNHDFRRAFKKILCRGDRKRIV

[8] = molecular target: Sodium-dependent noradrenaline transporter (Homo sapiens, UniProt P23975)
[9] = molecular target: 5-hydroxytryptamine receptor 2B (Homo sapiens, UniProt P41595); assay type: functional, cell-based
Note: assay procedure not described here.

Sequence of Beta-2 adrenergic receptor (P07550 whole entry): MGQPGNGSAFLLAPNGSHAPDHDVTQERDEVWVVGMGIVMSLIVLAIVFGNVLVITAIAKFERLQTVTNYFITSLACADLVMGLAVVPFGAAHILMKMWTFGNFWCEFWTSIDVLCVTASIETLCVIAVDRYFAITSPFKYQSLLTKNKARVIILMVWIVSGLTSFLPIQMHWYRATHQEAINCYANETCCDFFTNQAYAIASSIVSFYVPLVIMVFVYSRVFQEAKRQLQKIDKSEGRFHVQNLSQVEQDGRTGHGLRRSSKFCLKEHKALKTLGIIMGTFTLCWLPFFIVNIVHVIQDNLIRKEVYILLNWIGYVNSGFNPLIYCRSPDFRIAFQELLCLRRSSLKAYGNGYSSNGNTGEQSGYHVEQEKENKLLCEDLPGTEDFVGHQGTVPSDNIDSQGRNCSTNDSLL
Sequence of Neuronal acetylcholine receptor subunit alpha-4 (P43681 whole entry): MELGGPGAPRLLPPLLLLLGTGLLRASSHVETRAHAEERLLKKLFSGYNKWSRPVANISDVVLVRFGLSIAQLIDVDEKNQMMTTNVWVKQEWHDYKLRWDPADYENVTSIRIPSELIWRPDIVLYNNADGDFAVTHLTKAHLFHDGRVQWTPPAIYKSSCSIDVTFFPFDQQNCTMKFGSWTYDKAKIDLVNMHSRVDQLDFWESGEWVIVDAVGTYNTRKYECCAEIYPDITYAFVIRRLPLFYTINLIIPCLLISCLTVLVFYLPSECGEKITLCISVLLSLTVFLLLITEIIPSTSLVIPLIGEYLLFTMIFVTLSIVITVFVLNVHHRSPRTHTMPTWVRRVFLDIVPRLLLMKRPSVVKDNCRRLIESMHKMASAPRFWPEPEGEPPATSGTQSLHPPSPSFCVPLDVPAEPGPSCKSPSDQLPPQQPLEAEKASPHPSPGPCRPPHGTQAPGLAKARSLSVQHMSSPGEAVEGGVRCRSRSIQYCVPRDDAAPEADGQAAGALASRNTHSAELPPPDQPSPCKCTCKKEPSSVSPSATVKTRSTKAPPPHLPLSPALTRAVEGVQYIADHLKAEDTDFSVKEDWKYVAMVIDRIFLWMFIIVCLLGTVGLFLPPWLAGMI
T3 sequence (Q01959 whole entry): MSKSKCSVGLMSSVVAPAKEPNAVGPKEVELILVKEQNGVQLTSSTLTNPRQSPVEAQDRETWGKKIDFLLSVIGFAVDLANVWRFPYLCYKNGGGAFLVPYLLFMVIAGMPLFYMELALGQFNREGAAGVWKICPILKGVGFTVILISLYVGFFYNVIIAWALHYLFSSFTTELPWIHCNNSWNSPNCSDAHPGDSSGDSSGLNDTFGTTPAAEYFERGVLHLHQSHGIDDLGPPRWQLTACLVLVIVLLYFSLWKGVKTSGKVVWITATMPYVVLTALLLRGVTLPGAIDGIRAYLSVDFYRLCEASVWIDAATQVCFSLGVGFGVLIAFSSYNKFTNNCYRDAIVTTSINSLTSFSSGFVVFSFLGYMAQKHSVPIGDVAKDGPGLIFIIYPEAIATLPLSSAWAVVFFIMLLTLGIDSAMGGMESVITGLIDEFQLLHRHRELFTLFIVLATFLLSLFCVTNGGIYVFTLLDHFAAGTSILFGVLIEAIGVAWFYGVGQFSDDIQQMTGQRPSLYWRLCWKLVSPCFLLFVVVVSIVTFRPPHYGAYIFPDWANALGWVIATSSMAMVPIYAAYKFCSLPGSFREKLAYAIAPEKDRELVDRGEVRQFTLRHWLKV
Sequence of Vasopressin V2 receptor (P30518 whole entry): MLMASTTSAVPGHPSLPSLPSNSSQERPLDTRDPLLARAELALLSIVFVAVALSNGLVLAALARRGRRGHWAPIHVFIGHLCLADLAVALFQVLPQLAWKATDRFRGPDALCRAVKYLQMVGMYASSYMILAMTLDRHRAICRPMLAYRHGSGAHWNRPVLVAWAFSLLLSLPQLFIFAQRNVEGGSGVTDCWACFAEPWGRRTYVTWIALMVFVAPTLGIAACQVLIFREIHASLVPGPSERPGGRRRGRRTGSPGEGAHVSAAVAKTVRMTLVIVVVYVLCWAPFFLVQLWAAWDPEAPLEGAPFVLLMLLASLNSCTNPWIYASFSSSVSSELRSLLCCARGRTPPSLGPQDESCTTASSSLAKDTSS
Sequence of 5-hydroxytryptamine receptor 2B (P41595 whole entry): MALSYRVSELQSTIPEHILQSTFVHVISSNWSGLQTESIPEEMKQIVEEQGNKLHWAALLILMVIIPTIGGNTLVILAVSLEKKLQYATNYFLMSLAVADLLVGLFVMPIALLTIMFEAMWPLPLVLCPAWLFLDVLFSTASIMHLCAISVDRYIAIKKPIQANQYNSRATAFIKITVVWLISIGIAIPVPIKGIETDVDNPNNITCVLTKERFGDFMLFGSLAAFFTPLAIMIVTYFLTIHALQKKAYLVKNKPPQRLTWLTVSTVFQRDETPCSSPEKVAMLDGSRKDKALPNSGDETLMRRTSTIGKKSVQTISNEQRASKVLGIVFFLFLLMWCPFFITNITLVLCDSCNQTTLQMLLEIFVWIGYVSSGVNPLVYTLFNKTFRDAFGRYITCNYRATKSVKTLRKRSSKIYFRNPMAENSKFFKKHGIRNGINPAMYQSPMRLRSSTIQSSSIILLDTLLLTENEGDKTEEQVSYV
Sequence of Sodium-dependent noradrenaline transporter (P23975 whole entry): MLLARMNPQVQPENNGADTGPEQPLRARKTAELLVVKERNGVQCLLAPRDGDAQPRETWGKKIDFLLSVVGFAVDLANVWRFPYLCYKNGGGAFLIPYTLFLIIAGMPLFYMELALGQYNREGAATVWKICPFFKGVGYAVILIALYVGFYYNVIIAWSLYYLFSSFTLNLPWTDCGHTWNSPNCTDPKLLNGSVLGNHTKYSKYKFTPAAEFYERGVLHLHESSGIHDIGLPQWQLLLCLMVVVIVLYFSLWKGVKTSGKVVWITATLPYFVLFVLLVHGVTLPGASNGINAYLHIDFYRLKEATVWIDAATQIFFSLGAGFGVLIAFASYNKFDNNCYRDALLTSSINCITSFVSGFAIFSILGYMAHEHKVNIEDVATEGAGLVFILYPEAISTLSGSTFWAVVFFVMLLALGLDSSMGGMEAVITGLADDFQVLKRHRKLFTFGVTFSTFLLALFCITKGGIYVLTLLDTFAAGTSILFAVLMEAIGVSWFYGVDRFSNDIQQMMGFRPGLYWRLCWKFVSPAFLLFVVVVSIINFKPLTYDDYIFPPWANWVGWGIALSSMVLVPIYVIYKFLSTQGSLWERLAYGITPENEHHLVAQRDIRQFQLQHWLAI

SMILES	AC50 (Endothelin-1 receptor) [µM]	AC50 (Adenosine receptor A3)	AC50 [1]	AC50 [2] [µM]	AC50 [3] [µM]	AC50 [4] [µM]	AC50 (Vasopressin V2 receptor) [µM]	AC50 (Thromboxane A2 receptor) [µM]	AC50 [5] [µM]	AC50 [6] [µM]	AC50 [7] [µM]	AC50 [8] [µM]	AC50 [9] [µM]
C=CC[C@@H]1/C=C(\C)C[C@H](C)C[C@H](OC)[C@H]2O[C@@](O)(C(=O)C(=O)N3CCCC[C@H]3C(=O)O[C@H](/C(C)=C/[C@@H]3CC[C@@H](O)[C@H](OC)C3)[C@H](C)[C@@H](O)CC1=O)[C@H](C)C[C@@H]2OC [TACROLIMUS ANHYDROUS]	> 30	11 µM and 27.2 µM	19.6 µM and > 10 µM	> 10	> 30	> 30	> 30	–	–	–	–	–	–
C[C@H](CCC(=O)O)[C@H]1CC[C@H]2[C@@H]3[C@@H](O)C[C@@H]4C[C@H](O)CC[C@]4(C)[C@H]3CC[C@]12C [URSODIOL]	> 30	> 30 µM	> 30 µM	> 30	> 30	> 30	–	–	–	–	–	–	–
CN(C)CCC[C@@]1(c2ccc(F)cc2)OCc2cc(C#N)ccc21 [ESCITALOPRAM]	> 30	> 30 µM	–	–	> 30	> 30	> 30	–	–	–	–	–	–
C[C@@H](NCCCc1cccc(C(F)(F)F)c1)c1cccc2ccccc12	> 30	8.1 µM	6.4 µM	> 30	> 1	> 30	20	–	–	–	–	–	–
N[C@@H](CC(=O)N1CCn2c(nnc2C(F)(F)F)C1)Cc1cc(F)c(F)cc1F [SITAGLIPTIN]	> 30	> 30 µM	> 30 µM	> 30	> 30	> 30	–	–	–	–	–	–	–
CN(C)CCc1c[nH]c2ccc(Cn3cncn3)cc12 [RIZATRIPTAN]	> 30	> 30 µM	> 10 µM	> 30	> 10	> 30	> 30	–	–	–	–	–	–
COc1cc2nccc(Oc3ccc(NC(=O)C4(C(=O)Nc5ccc(F)cc5)CC4)cc3)c2cc1OC [CABOZANTINIB]	> 30	3.7 µM	> 30 µM	> 30	> 30	> 30	–	> 30	> 30	> 30	> 30	> 30	> 30
CCN1CCN(Cc2ccc(Nc3ncc(F)c(-c4cc(F)c5nc(C)n(C(C)C)c5c4)n3)nc2)CC1 [ABEMACICLIB]	> 30	> 30 µM	> 30 µM	> 30	> 30	> 30	–	–	–	–	–	–	–
C[C@@H](Oc1cc(-c2cnn(C3CCNCC3)c2)cnc1N)c1c(Cl)ccc(F)c1Cl [CRIZOTINIB]	> 30	8.93 µM	7.8 µM	> 10	–	> 30	> 30	–	–	–	–	–	–
